Reference: US20240246913A1, “2-CARBOXYL-INDOLE INHIBITORS OF METALLO-BETA-LACTAMASES” (Oxford University Innovation Limited, priority 2021, published 2024)

Columns and labels:
[1] = Plasma protein binding, equilibrium dialysis, human plasma; assay type: in vitro ADME; settings: pH 7.4, equilibrium dialysis (RED) 4 hours at 37° C., read-out: Plasma protein binding, fu, Human
Procedure, shortened: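 Compound at 10 μM in plasma dialysed against 67 mM phosphate buffer pH 7.4 for 4 h at 37° C. in RED device; unbound fraction from buffer and plasma levels by LC-MS/MS. Plasma stability checked in parallel over 4 h at 37° C. versus frozen control.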

[2] = target: NDM-1 (Klebsiella pneumoniae, UniProt C7C422); test: MBL inhibition, FC-5 fluorescence assay, NDM-1; assay type: biochemical; settings: FC-5 cephalosporin substrate, fluorescence; ranges of obtained pIC50; read-out: pIC50 NDM-1 (converted)
Procedure, shortened: (§1)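 Fluorescence read-out (380 nm excitation, 460 nm emission) tracks fluorophore liberated when each enzyme breaks down cephalosporin substrate FC-5. Initial rates across inhibitor concentrations, each run in quadruplicate on the plate, give normalized curves fitted with a variable Hill slope.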

[3] = target: VIM-2 (Escherichia coli, UniProt Q5U7L7); test: MBL inhibition, FC-5 fluorescence assay, VIM-2; assay type: biochemical; settings: FC-5 cephalosporin substrate, ranges of obtained pIC50, read-out: pIC50 VIM-2 (converted)
Procedure, shortened: as §1

[4] = target: VIM-1 (Pseudomonas aeruginosa, UniProt A0A0F7KYQ8); test: MBL inhibition, FC-5 fluorescence assay, VIM-1; assay type: biochemical; settings: FC-5 cephalosporin substrate, ranges of obtained pIC50, read-out: pIC50 VIM-1 (converted)
Procedure, shortened: as §1

[5] = Plasma protein binding, equilibrium dialysis, mouse plasma; assay type: in vitro ADME; settings: pH 7.4, equilibrium dialysis (RED) 4 hours at 37° C., read-out: Plasma protein binding, fu, Mouse
Protocol: The fraction of unbound compound (fu) in plasma from human or other animal species was determined by equilibrium dialysis at 37° C. for 4 hours using the Rapid Equilibrium Dialysis (RED) device (ThermoFisher Scientific). The test compound at a concentration of 10 μM was added to plasma and dialyzed against isotonic phosphate buffer (67 mM, pH 7.4) over 4 hours at 37° C. After dialysis, compound concentrations in buffer and plasma were quantified by LC-MS/MS. In parallel the stability of the compound in plasma was determined by incubating drug-spiked plasma (10 μM) at 37° C. for 4 hours, meanwhile the control plasma sample was kept in the freezer. The concentration of the compound in both samples was quantified by LC-MS/MS (Waters Corp, Milford, MA, USA).

[6] = Metabolic stability in human hepatocytes; assay type: in vitro ADME; settings: cryopreserved human hepatocytes, 1 μM compound, 37° C., up to 90 min, read-out: Metabolic stability in hepatocytes, in vitro t1/2, Human
Protocol: (§2) Metabolic stability assays were performed in cryopreserved human and mouse hepatocytes. The hepatocytes were thawed and added to “Thawing media”, and centrifuged to pellet the hepatocytes. The cell pellet was taken up in Williams medium E (Invitrogen A1217601), the number of cells was calculated and adjusted to 1.0×10^6 cells/mi. The incubation was carried out on a heater-shaker at […], in a 24-well Picoplate (round bottom, PerkinElmer), using an incubation volume of […]. Thus, to obtain a final compound concentration of 1 μM, 0.7 μl of the 1 mM compound stock solution was pipetted to the wells of the plate. Reaction was initiated by adding 700 μl of cell suspension. Samples were incubated at 37° C. for […] and a zero sample was taken, i.e. 100 μl sample was removed to a 96-well plate and the reaction was quenched by adding 100 μl of 100% MeCN containing 50 nM Warfarin as an internal control. Consecutive samples were taken at time-points 5 min, 15 min, 30 min, 60 min, and 90 min. After finishing the experiment, samples were centrifuged at 3000 rpm for 15 min and before analysis by LC-MS/MS (Waters Corp, Milford, MA, USA).

[7] = target: IMP-1 (Serratia marcescens, UniProt P52699); test: MBL inhibition, FC-5 fluorescence assay, IMP-1; assay type: biochemical; settings: FC-5 cephalosporin substrate, fluorescence; ranges of obtained pIC50; read-out: pIC50 IMP-1 (converted)
Procedure, shortened: as §1

[8] = Metabolic stability in mouse hepatocytes; assay type: in vitro ADME; settings: cryopreserved mouse hepatocytes, 1 μM compound, 37° C., up to 90 min, read-out: Metabolic stability in hepatocytes, in vitro t1/2, Mouse
Protocol: as §2

[9] = tested on: Escherichia coli NDM-7; test: Antibiotic susceptibility testing (MIC), EC NDM-7; assay type: cell-based; settings: agar or broth dilution (CLSI/EUCAST)
Protocol: (§3) Antibiotic susceptibility testing was performed using the agar or broth dilution method, in line with the Clinical and Laboratory Standards Institute (CLSI) and European Committee on Antimicrobial Susceptibility Testing (EUCAST) requirements.

[10] = tested on: Escherichia coli NDM-1; test: Antibiotic susceptibility testing (MIC), EC NDM-1; assay type: cell-based; settings: agar or broth dilution (CLSI/EUCAST)
Protocol: as §3

[11] = tested on: Acinetobacter baumannii NDM-1; test: Antibiotic susceptibility testing (MIC), AB NDM-1; assay type: cell-based; settings: agar or broth dilution (CLSI/EUCAST)
Protocol: as §3

NDM-1, sequence (C7C422 29-270, looked up, species assumed): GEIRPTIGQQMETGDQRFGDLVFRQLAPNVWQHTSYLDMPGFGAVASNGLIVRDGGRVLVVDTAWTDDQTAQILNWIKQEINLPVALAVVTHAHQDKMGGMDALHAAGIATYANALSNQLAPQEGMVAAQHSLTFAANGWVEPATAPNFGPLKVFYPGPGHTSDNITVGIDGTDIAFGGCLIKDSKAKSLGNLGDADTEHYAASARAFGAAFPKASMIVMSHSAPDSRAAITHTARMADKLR
IMP-1, sequence (P52699 19-246, looked up, species assumed): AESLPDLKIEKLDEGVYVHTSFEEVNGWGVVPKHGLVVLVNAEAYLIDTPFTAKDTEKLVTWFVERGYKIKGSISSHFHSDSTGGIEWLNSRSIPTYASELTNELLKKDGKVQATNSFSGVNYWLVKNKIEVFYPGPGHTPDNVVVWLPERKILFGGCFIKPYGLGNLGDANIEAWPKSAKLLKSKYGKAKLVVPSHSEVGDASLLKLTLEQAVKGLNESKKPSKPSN

Row | Structure (SMILES) | fraction unbound at 4 h, 10 μM [1] | IC50 [2] | IC50 [3] | IC50 [4] | fraction unbound at 4 h, 10 μM [5] | half-life at 1 μM [6] | IC50 [7] | half-life at 1 μM [8] | MIC values EC NDM-7 [9] | MIC values EC NDM-1 [10] | MIC values AB NDM-1 [11]
1 | CC(NC(=O)[C@H]1CC[C@H](CN)CC1)c1cccc2c(-c3ccc(CS(C)(=O)=O)c(F)c3)c(C(=O)O)[nH]c12 (mixture of isomers) [IC-99, 7-[1-[[4-(Aminomethyl)cyclohexanecarbonyl]amino]ethyl]-3-[3-fluoro-4-(methylsulfonylmethyl)phenyl]-1H-indole-2-carboxylic acid] | 0.05 to 0.25 | 1 to 10 nM | < 0.1 nM | > 10 nM | 0.05 to 0.25 | > 6.67 h | > 10 nM | > 6.67 h | – | – | –
2 | C[C@H](OCc1ccc(CN)cc1)c1cccc2c(-c3ccc(CS(C)(=O)=O)c(Cl)c3)c(C(=O)O)[nH]c12 (single isomer, unassigned) [IC-87] | 0.005 to 0.05 | < 0.1 nM | 0.1 to 1 nM | 1 to 10 nM | 0.05 to 0.25 | > 6.67 h | 1 to 10 nM | < 2.5 h | – | – | –
3 | C[C@@H](OCc1ccc(CN)cc1)c1cccc2c(-c3ccc(CS(C)(=O)=O)c(Cl)c3)c(C(=O)O)[nH]c12 (single isomer, unassigned) [IC-88] | 0.005 to 0.05 | 0.1 to 1 nM | > 10 nM | > 10 nM | < 0.005 | > 6.67 h | 1 to 10 nM | < 2.5 h | – | – | –
4 | C[C@@H](c1cccc2c(-c3ccc(NS(C)(=O)=O)c(C#N)c3)c(C(=O)O)[nH]c12)N1C[C@]2(C[C@@H](CN)C2)OC1=O [IC-16, 7-((1S)-1-(2-(aminomethyl)-6-oxo-5-oxa-7-azaspiro[3.4]octan-7-yl)ethyl)-3-(3-cyano-4-(methylsulfonamido)phenyl)-1H-indole-2-carboxylic acid] | 0.05 to 0.25 | < 0.1 nM | 0.1 to 1 nM | 1 to 10 nM | 0.05 to 0.25 | > 6.67 h | > 10 nM | > 6.67 h | A (A = MIC values ≤ 1) | A (A = MIC values ≤ 1) | B (B MIC values 2 ÷ 8)
5 | C[C@@H](c1cccc2c(-c3ccc(NS(C)(=O)=O)c(C#N)c3)c(C(=O)O)[nH]c12)n1cc(CN2CC(N)C2)oc1=O [IC-55, 7-[(1S)-1-{5-[(3-aminoazetidin-1-yl)methyl]-2-oxo-2,3-dihydro-1,3-oxazol-3-yl}ethyl]-3-(3-cyano-4-methanesulfonamidophenyl)-1H-indole-2-carboxylic acid] | 0.05 to 0.25 | < 0.1 nM | 0.1 to 1 nM | > 10 nM | 0.005 to 0.05 | 2.5 to 6.67 h | > 10 nM | 2.5 to 6.67 h | B (B MIC values 2 ÷ 8) | B (B MIC values 2 ÷ 8) | B (B MIC values 2 ÷ 8)
6 | CC(c1noc(CCCN)n1)c1cccc2c(-c3ccc(CS(C)(=O)=O)c(F)c3)c(C(=O)O)[nH]c12 (stereo not shown) [IC-62, 7-[1-[5-(3-Aminopropyl)-1,2,4-oxadiazol-3-yl]ethyl]-3-[3-fluoro-4-(methylsulfonylmethyl)phenyl]-1H-indole-2-carboxylic acid] | 0.05 to 0.25 | < 0.1 nM | 0.1 to 1 nM | 0.1 to 1 nM | 0.005 to 0.05 | > 6.67 h | 1 to 10 nM | 2.5 to 6.67 h | A (A = MIC values ≤ 1) | A (A = MIC values ≤ 1) | A (A = MIC values ≤ 1)
7 | C[C@@H](c1cccc2c(-c3ccc(CS(C)(=O)=O)c(F)c3)c(C(=O)O)[nH]c12)n1cc(CN2CC(C)(N)C2)oc1=O [IC-68, (S)-7-(1-(5-((3-amino-3-methylazetidin-1-yl)methyl)-2-oxooxazol-3(2H)-yl)ethyl)-3-(3-fluoro-4-((methylsulfonyl)methyl)phenyl)-1H-indole-2-carboxylic acid] | – | < 0.1 nM | 0.1 to 1 nM | 1 to 10 nM | – | > 6.67 h | > 10 nM | > 6.67 h | A (A = MIC values ≤ 1) | A (A = MIC values ≤ 1) | B (B MIC values 2 ÷ 8)
8 | CC(OCc1ccc(CN)cc1)c1cccc2c(-c3ccc(NS(C)(=O)=O)c(C#N)c3)c(C(=O)O)[nH]c12 (stereo not shown) [IC-86, 7-(1-((4-(Aminomethyl)benzyl)oxy)ethyl)-3-(3-cyano-4-(methylsulfonamido)phenyl)-1H-indole-2-carboxylic acid] | 0.005 to 0.05 | < 0.1 nM | 1 to 10 nM | > 10 nM | 0.05 to 0.25 | > 6.67 h | > 10 nM | < 2.5 h | – | – | –
9 | CC(OCC1CCNCC1)c1cccc2c(-c3ccc(CS(C)(=O)=O)c(F)c3)c(C(=O)O)[nH]c12 (stereo not shown) [IC-89, 3-(3-Fluoro-4-((methylsulfonyl)methyl)phenyl)-7-(1-(piperidin-4-ylmethoxy)ethyl)-1H-indole-2-carboxylic acid] | 0.05 to 0.25 | 0.1 to 1 nM | 1 to 10 nM | 1 to 10 nM | 0.05 to 0.25 | > 6.67 h | > 10 nM | > 6.67 h | – | – | –
10 | CC(Oc1ccc(CN)cc1)c1cccc2c(-c3ccc(CS(C)(=O)=O)c(F)c3)c(C(=O)O)[nH]c12 (stereo not shown) [IC-92, 7-(1-(4-(Ammoniomethyl)phenoxy)ethyl)-3-(3-fluoro-4-((methylsulfonyl)methyl)phenyl)-1H-indole-2-carboxylate] | 0.05 to 0.25 | 1 to 10 nM | 1 to 10 nM | 1 to 10 nM | 0.005 to 0.05 | > 6.67 h | 1 to 10 nM | 2.5 to 6.67 h | – | – | –
11 | CC(OC(=O)N1CCC(CN)CC1)c1cccc2c(-c3ccc(CS(C)(=O)=O)c(F)c3)c(C(=O)O)[nH]c12 (stereo not shown) [IC-95, 7-(1-((4-(Aminomethyl)piperidine-1-carbonyl)oxy)ethyl)-3-(3-fluoro-4-((methylsulfonyl)methyl)phenyl)-1H-indole-2-carboxylic acid] | 0.05 to 0.25 | 0.1 to 1 nM | 1 to 10 nM | > 10 nM | 0.005 to 0.05 | > 6.67 h | > 10 nM | > 6.67 h | – | – | –
12 | CC(c1cccc2c(-c3ccc(CS(C)(=O)=O)c(F)c3)c(C(=O)O)[nH]c12)N(C)C(=O)c1ccc(CN)cc1 (stereo not shown) [IC-97, 7-(1-(4-(Aminomethyl)-N-methylbenzamido)ethyl)-3-(3-fluoro-4-((methylsulfonyl)methyl)phenyl)-1H-indole-2-carboxylic acid] | 0.05 to 0.25 | 1 to 10 nM | 1 to 10 nM | > 10 nM | 0.05 to 0.25 | > 6.67 h | > 10 nM | < 2.5 h | – | – | –
